Laboratory results published in US20090270379A1, “QUINOLONE DERIVATIVES USEFUL AS ANTIBACTERIAL AGENTS” (priority 2008, published 2009).
≈ marks a conversion by molar mass, not a printed value.

Columns and labels:
Type in all cases: cell-based
[1] = system: Streptococcus pneumoniae ATCC 49619; test: In vitro antibacterial activity (MIC), microdilution broth method, strain E; details: ATCC49619, 35° C., 16-20 hours
Experimental: (§1) Minimal inhibitory concentration (MIC) is an indicator of in vitro antibacterial activity. […] The in vitro antimicrobial activity of representative compounds of the present invention was determined by the microdilution broth method following the test method from the National Committee for Clinical Laboratory Standards (NCCLS). This method is described in the NCCLS Document M7-A4, Vol. 17, No. 2, “Methods for Dilution Antimicrobial Susceptibility Test for Bacteria that Grow Aerobically—Fourth Edition”, which is incorporated herein by reference.
(§2) In this method two-fold serial dilutions of drug in cation adjusted Mueller-Hinton broth were added to wells in microdilution trays. The test organisms were prepared by adjusting the turbidity of actively growing broth cultures so that the final concentration of test organism after it is added to the wells was approximately 5×10^4 CFU/well. Following inoculation of the microdilution trays, the trays were incubated at 35° C. for 16-20 hours and then read. The amount of growth in the wells containing the test compound was compared with the amount of growth in the growth-control wells (no test compound) used in each tray.
(§3) Representative compounds of the present invention were tested against a variety of pathogenic bacteria with results as listed in Table 3, below.

[2] = system: strain D, fluoroquinolone-resistant clinical isolate of Streptococcus pneumoniae; test: In vitro antibacterial activity (MIC), microdilution broth method, strain D; details: read-out: MIC (μg/mL) D
Experimental: as §1, §2, §3

[3] = system: Staphylococcus aureus OC4172; test: In vitro antibacterial activity (MIC), microdilution broth method, strain A; details: cation adjusted Mueller-Hinton broth, 35° C., 16-20 hours
Experimental: as §1, §2, §3

[4] = system: strain C, fluoroquinolone-resistant clinical isolate of Streptococcus pneumoniae; test: In vitro antibacterial activity (MIC), microdilution broth method, strain C; details: read-out: MIC (μg/mL) C
Experimental: as §1, §2, §3

[5] = system: strain B, fluoroquinolone-resistant clinical isolate of Streptococcus pneumoniae; test: In vitro antibacterial activity (MIC), microdilution broth method, strain B; details: read-out: MIC (μg/mL) B
Experimental: as §1, §2, §3

In the case of `O=C(O)c1cn(-c2ccc(F)cc2F)c2nc(-c3cc4n(c3)CCN(Cc3ccccc3)C4)c(F)cc2c1=O` [Compound 30, 7-(2-Benzyl-1,2,3,4-tetrahydro-pyrrolo[1,2-a]pyrazin-7-yl)-1-(2,4-difluoro-phenyl)-6-fluoro-4-oxo-1,4-dihydro-[1,8]naphthyridine-3-carboxylic acid], the MIC [1] is reported as 8 mg/L (≈ 15.1 µM), the MIC [2] is reported as 16 µg/mL (≈ 30.2 µM) and the MIC [3] is reported as 2 mg/L (≈ 3.77 µM). For the same compound, the MIC [4] was 8 µg/mL (≈ 15.1 µM) and the MIC [5] was 8 µg/mL (≈ 15.1 µM).

`COc1c(-c2cc3n(c2)C[C@H](CO)N(C)C3)c(F)cc2c(=O)c(C(=O)O)cn(C3CC3)c12` [Compound 15, 1-Cyclopropyl-6-fluoro-7-(3R-hydroxymethyl-2-methyl-1,2,3,4-tetrahydro-pyrrolo[1,2-a]pyrazin-7-yl)-8-methoxy-4-oxo-1,4-dihydro-quinoline-3-carboxylic acid] showed an MIC [1] of 1 mg/L (≈ 2.27 µM), an MIC [2] of 16 µg/mL (≈ 36.2 µM) and an MIC [3] of 0.12 mg/L (≈ 0.272 µM). For the same compound, the MIC [4] was 8 µg/mL (≈ 18.1 µM) and the MIC [5] was 4 µg/mL (≈ 9.06 µM).

With `C[C@@H]1NCCn2cc(-c3c(F)cc4c(=O)c(C(=O)O)cn(C5CC5)c4c3OC(F)F)cc21` [Compound 29, 1-Cyclopropyl-8-difluoromethoxy-6-fluoro-7-(1S-methyl-1,2,3,4-tetrahydro-pyrrolo[1,2-a]pyrazin-7-yl)-4-oxo-1,4-dihydro-quinoline-3-carboxylic acid] the MIC [1] was 2 mg/L (≈ 4.47 µM), the MIC [2] was 16 µg/mL (≈ 35.8 µM) and the MIC [3] was 0.25 mg/L (≈ 0.559 µM). It also gave an MIC [4] of 8 µg/mL (≈ 17.9 µM) and an MIC [5] of 1 µg/mL (≈ 2.24 µM).

Compound `C[C@H]1Cn2cc(-c3c(F)cc4c(=O)c(C(=O)O)cn5c4c3OC[C@@H]5C)cc2CN1` [Compound 23, 8-Fluoro-3S-methyl-9-(3S-methyl-1,2,3,4-tetrahydro-pyrrolo[1,2-a]pyrazin-7-yl)-6-oxo-2,3-dihydro-6H-1-oxa-3a-aza-phenalene-5-carboxylic acid] has an MIC [1] of 1 mg/L (≈ 2.52 µM), an MIC [2] of 16 µg/mL (≈ 40.3 µM) and an MIC [3] of 0.25 mg/L (≈ 0.629 µM). It also gave an MIC [4] of 8 µg/mL (≈ 20.1 µM) and an MIC [5] of 4 µg/mL (≈ 10.1 µM).

Compound `COc1c(-c2cc3n(c2)CCN[C@H]3C)c(F)cc2c(=O)c(C(=O)O)cn(C3CC3)c12` [Compound 16, 1-Cyclopropyl-6-fluoro-8-methoxy-7-(1S-methyl-1,2,3,4-tetrahydro-pyrrolo[1,2-a]pyrazin-7-yl)-4-oxo-1,4-dihydro-quinoline-3-carboxylic acid] has an MIC [1] of 0.5 mg/L (≈ 1.22 µM), an MIC [2] of 8 µg/mL (≈ 19.4 µM) and an MIC [3] of 0.12 mg/L (≈ 0.292 µM). It also gave an MIC [4] of 4 µg/mL (≈ 9.72 µM) and an MIC [5] of 2 µg/mL (≈ 4.86 µM).

In the case of `O=C(O)c1cn(C2CC2)c2c(OC(F)F)c(C3=C[C@H]4CN(Cc5ccccc5)CCN4C3)ccc2c1=O` [Compound 2, 7-(2-Benzyl-1,2,3,4,6,8a-hexahydro-pyrrolo[1,2S-a]pyrazin-7-yl)-1-cyclopropyl-8-difluoromethoxy-4-oxo-1,4-dihydro-quinoline-3-carboxylic acid], the MIC [1] is reported as 8 mg/L (≈ 15.8 µM), the MIC [2] is reported as over 16 µg/mL and the MIC [3] is reported as 0.5 mg/L (≈ 0.985 µM). For the same compound, the MIC [4] was over 16 µg/mL and the MIC [5] was over 16 µg/mL.

Work on `CN1CCn2cc(-c3ccc4c(=O)c(C(=O)O)cn(C5CC5)c4c3OC(F)F)cc2C1` [Compound 4, 1-Cyclopropyl-8-difluoromethoxy-7-(2-methyl-1,2,3,4-tetrahydro-pyrrolo[1,2-a]pyrazin-7-yl)-4-oxo-1,4-dihydro-quinoline-3-carboxylic acid] yielded an MIC [1] of 2 mg/L (≈ 4.66 µM), an MIC [2] of over 16 µg/mL and an MIC [3] of 0.25 mg/L (≈ 0.582 µM). For the same compound, the MIC [4] was over 16 µg/mL and the MIC [5] was 2 µg/mL (≈ 4.66 µM).

For `CN1CCN2CC(c3ccc4c(=O)c(C(=O)O)cn(C5CC5)c4c3OC(F)F)C[C@H]2C1` (stereo partly drawn) [Compound 5, 1-Cyclopropyl-8-difluoromethoxy-7-(2-methyl-octahydro-pyrrolo[1,2s-a]pyrazin-7-yl)-4-oxo-1,4-dihydro-quinoline-3-carboxylic acid], the MIC [1] was over 16 mg/L, the MIC [2] was over 16 µg/mL and the MIC [3] was 8 mg/L (≈ 18.5 µM). It also gave an MIC [4] of over 16 µg/mL and an MIC [5] of over 16 µg/mL.

For `C[C@H]1Cn2cc(-c3ccc4c(=O)c(C(=O)O)cn(C5CC5)c4c3OC(F)F)cc2CN1` [Compound 7, 1-Cyclopropyl-8-difluoromethoxy-7-(3S-methyl-1,2,3,4-tetrahydro-pyrrolo[1,2-a]pyrazin-7-yl)-4-oxo-1,4-dihydro-quinoline-3-carboxylic acid], the MIC [1] was 1 mg/L (≈ 2.33 µM), the MIC [2] was 16 µg/mL (≈ 37.3 µM) and the MIC [3] was 0.12 mg/L (≈ 0.279 µM). The MIC [4] was 8 µg/mL (≈ 18.6 µM) and the MIC [5] was 1 µg/mL (≈ 2.33 µM).
